Data from patent US11083718B2, “Betahistine, or a pharmaceutically acceptable salt thereof, and a monoamine oxidase inhibitor, for use in the treatment or prevention of one or more symptoms of vertigo in a subject” (INTRABIO LTD, priority 2017, dated 2021).
“And” between values parts separate entries of the source, which are not always exact repeats. Equal values may be shown once.

Assays:
[1] = system: acute attacks of vertigo in patients with Menière's disease; test: Observational study: high-dosage betahistine monotherapy versus lower-dosage betahistine plus selegiline; format: in vivo, human
Procedure: Betahistine dihydrochloride tablets were obtained from Abbott (Vasomotol 24 mg tablets). Selegiline hydrochloride tablets were obtained from Hexal.
Studies by the Applicant investigated the benefits of a high-dosage betahistine monotherapy compared with those of a lower dosage of betahistine in combination with the MAO B inhibitor (MAO-B) selegiline on the frequency of acute attacks of vertigo in patients with Menière's disease (MD).
More specifically, studies investigated the effect of combination therapy in 13 subjects receiving 5 mg per day selegiline hydrochloride (either as one tablet at night, or half a tablet in the morning and half a tablet at night), in conjunction with varying amounts of betahistine dihydrochloride per day (amounts ranging from n=3 to 36, where n is the number of 24 mg tablets per day). All subjects had previously received treatment with betahistine dihydrochloride monotherapy (in amounts ranging from n=9 to 80, where n is the number of 24 mg tablets per day), and the number of vertigo attacks per month were recorded during a three month period of monotherapy prior to commencement of combination treatment. Following combination treatment, the subjects then recorded the number of vertigo attacks per month during the last two months of combination treatment.
The 13 patients in this observational study fulfilled the current diagnostic criteria of MD [48]. Patients with the diagnosis of other peripheral or central vestibular disorders, such as vestibular migraine, benign paroxysmal positional vertigo, paroxysmal brainstem attacks, or functional dizziness, were not included. Patients suffering from known contraindications or hypersensitivity to betahistine, such as bronchial asthma, pheochromocytoma, or treatment with other antihistaminic drugs, ulcer of the stomach or duodendum, or severe dysfunction of liver or kidney were also not treated with betahistine. Patients with known contraindications (e.g., use of meperidine or other opioids, tricyclic antidepressants or non-selective MAOls, selective serotonin re-uptake inhibitors) or hypersensitivity to selegiline were not treated with this agent.
Based on the results of the BEMED trial (showing that betahistine 48 mg tid is evidently not effective) the study initially started with a dosage of 96 mg tid in all patients. During the three- to six-monthly follow-up examinations the daily dosages were adjusted according to the patient's response (approach: “titration” of attacks of vertigo). Patients had been treated for at least 18 months with high dosages of betahistine-dihydrochloride and had ≤1 attacks for at least three months. An initial dosage of 5 mg/day selegiline hydrochloride was chosen (approved dosage for Parkinson's disease is 5 to 10 mg/d). In parallel the dosage of betahistine was reduced to about a tenth of the initial dosage. The design of the observational study was approved by the local ethics committee. Follow-up examinations were after 1 month and then every 3 months to check the efficacy of the treatment and the side-effects and to adjust the betahistine dosage if necessary. Ideally, the objective was to achieve ≤1 attack per three months.

[2] = cited from earlier work
[3] = system: vertigo episodes related to Menière's disease; conditions: daily doses 2×24 mg or 3×48 mg; nine months; cited from earlier work

**Q.** What does the source list for `CNCCc1ccccn1` [betahistine, 2-[2-(methylamino)ethyl]pyridine]?
**A.** daily betahistine-dihydrochloride dosage required to achieve a treatment response, mean ([1]; 13 patients): 895.4 mg/day; daily betahistine-dihydrochloride dosage required to achieve a treatment response, mean in tablets ([1]; 13 patients): 37.3 24-mg tablets per day; mean daily dosage of betahistine-dihydrochloride to respond to treatment (≤1 attack per three months), FIG. 1 ([1]; 13 patients, per day): 895.4 mg; tolerability ([1]; 216 to 1920 mg per day): well tolerated; patients with fullness of the stomach ([1]; 216 to 1920 mg per day, 13 patients): 4 patients; Dosage of betahistine (monotherapy) required that the patient had a significant effect before the combined treatment ([1]; individual patients 1-13 with Menière's disease, tablets per day): 80 n of 24-mg tablets and 30 n of 24-mg tablets (3×) and 9 n of 24-mg tablets and 36 n of 24-mg tablets and 60 n of 24-mg tablets (2×) and 24 n of 24-mg tablets and 18 n of 24-mg tablets (2×) and 50 n of 24-mg tablets and 40 n of 24-mg tablets; plasma concentrations ([2]; betahistine without MAO inhibitor): less than 0.5 ng/ml; first-pass effect ([2]; normally almost complete): 99%; effect on time course of vertigo episodes compared with placebo [3]: does not change the time course of vertigo episodes
